These results are taken from ChEMBL document CHEMBL2046303, “Discovery and Development of Potent LFA-1/ICAM-1 Antagonist SAR 1118 as an Ophthalmic Solution for Treating Dry Eye” (ACS Med Chem Lett, 2012).

pIC50: −log10 of the molar value. The source made the active and inactive calls.

The target of data set [1] is T1, Intercellular adhesion molecule (ICAM-1), Integrin alpha-L/beta-2 (Homo sapiens, UniProt P05107+P05362+P20701). The experiment in a line: Antagonist activity at LFA-1/ICAM-1 in human HuT-78 T-cells assessed as inhibition of cell adhesion after 1 hr by p-nitrophenyl n-acetyl-beta-D-glucosaminide method. In kind it is functional, cell-based, HuT78.
T1 sequence (P20701 whole entry): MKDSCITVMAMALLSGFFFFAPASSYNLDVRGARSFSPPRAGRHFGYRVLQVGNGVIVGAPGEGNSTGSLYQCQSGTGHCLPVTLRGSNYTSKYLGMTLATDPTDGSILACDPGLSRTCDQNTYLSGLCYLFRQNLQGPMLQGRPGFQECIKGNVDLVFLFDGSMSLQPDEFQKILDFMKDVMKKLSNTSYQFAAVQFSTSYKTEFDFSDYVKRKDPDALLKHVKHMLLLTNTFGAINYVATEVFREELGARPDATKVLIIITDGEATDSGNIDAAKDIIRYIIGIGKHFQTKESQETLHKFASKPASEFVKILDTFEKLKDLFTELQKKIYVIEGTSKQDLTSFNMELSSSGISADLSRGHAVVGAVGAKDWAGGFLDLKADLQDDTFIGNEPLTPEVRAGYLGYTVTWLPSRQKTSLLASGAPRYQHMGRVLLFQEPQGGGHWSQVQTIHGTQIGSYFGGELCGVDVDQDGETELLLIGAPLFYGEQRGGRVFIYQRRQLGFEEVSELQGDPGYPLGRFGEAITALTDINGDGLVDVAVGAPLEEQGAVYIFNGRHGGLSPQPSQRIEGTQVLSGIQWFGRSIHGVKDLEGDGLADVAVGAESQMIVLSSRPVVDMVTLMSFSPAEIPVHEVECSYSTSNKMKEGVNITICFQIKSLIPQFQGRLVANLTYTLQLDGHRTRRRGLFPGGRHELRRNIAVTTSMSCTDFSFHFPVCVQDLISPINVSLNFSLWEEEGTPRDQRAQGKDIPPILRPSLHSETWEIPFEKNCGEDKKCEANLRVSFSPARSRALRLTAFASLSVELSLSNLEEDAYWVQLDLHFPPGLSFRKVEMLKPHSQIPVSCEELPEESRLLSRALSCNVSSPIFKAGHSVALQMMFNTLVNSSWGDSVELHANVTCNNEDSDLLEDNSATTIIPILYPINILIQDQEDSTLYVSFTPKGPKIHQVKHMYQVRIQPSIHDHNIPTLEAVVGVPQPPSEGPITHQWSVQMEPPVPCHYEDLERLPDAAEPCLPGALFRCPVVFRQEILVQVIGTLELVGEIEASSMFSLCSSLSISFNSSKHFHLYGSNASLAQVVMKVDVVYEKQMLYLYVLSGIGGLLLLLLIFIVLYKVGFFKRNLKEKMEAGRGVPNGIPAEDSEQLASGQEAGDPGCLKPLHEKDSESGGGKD
T1 sequence (P05362 whole entry): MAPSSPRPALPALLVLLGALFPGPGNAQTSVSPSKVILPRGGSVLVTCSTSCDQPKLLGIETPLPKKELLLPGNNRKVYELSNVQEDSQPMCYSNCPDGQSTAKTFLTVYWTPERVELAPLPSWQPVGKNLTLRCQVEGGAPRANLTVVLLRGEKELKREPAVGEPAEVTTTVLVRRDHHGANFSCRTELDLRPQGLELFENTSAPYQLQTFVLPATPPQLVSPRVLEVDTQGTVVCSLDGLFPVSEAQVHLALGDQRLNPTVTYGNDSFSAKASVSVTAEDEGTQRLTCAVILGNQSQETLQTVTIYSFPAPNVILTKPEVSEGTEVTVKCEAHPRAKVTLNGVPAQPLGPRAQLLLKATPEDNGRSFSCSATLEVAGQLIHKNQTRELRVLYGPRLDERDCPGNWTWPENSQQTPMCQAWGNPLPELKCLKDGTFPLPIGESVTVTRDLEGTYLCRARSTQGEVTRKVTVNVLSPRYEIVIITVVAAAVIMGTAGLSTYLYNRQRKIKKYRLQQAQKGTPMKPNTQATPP
T1 sequence (P05107 whole entry): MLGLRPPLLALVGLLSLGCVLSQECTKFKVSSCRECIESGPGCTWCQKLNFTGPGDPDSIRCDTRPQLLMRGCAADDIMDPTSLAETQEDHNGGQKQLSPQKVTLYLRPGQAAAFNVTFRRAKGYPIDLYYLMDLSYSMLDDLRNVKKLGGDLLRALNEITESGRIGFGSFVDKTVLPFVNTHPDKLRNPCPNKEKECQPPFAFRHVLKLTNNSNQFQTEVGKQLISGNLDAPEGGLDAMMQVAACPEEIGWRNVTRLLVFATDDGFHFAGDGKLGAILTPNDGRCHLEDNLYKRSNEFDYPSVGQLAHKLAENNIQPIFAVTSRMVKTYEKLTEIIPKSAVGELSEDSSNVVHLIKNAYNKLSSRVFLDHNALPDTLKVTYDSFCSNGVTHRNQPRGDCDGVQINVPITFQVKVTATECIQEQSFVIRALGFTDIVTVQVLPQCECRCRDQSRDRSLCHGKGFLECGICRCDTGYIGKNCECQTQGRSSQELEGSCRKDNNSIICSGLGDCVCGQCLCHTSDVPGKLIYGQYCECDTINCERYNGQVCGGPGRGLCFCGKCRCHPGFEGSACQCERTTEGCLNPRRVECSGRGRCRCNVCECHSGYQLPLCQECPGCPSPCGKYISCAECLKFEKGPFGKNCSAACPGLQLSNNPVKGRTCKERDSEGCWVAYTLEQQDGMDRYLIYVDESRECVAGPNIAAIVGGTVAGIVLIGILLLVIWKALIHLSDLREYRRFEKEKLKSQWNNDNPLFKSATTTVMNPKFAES
In data set [2] the target is T1, Intercellular adhesion molecule (ICAM-1), Integrin alpha-L/beta-2. Briefly: Antagonist activity at LFA-1/ICAM-1 in human HuT-78 T-cells assessed as inhibition of cell adhesion after 1 hr by p-nitrophenyl n-acetyl-beta-D-glucosaminide method in presence of 10% human serum. Format: functional, cell-based, HuT78.
A short description of data set [3]: Metabolic stability in rat liver microsomes assessed as compound remaining after 30 mins. In kind it is ADME, Microsome. As to conditions: read-out: Stability. (Liver microsomes are vesicles of endoplasmic reticulum, rich in cytochrome P450 enzymes.)
Data set [4] can be described thus: Metabolic stability in human liver microsomes assessed as compound remaining after 30 mins. Format: ADME, Microsome. The note with it: read-out: Stability.
The nature of data set [5]: Half life in Sprague-Dawley rat at 5 mg/kg, iv. As to conditions: in vivo. In kind it is ADME, organism-based. The arrangement: dose 5 mg/kg, route intravenous.
Data set [6] concerns Salmonella typhimurium. Briefly: Genotoxicity in Salmonella typhimurium by Ames test. The note with it: salmonella enterica subsp. enterica serovar typhimurium. Format: toxicity, organism-based. Background: The Ames test detects mutagens through reverse mutation in bacteria.
Data set [7] has as its system Rattus norvegicus. The experiment in a line: AUC in Sprague-Dawley rat at 5 mg/kg, iv. Format: ADME, organism-based, Plasma. The arrangement: dose 5 mg/kg, route intravenous. As to conditions: in vivo.
Data set [8] relates to Canis familiaris. Briefly: Increase of mean schirmer's tear test in dog administered topically with 1% PBS solution tid for 12 weeks measured after 1 to 12 weeks. In kind it is functional, Canis lupus familiaris.
In data set [9] the target is Cytochrome P450 2C9 (Homo sapiens, UniProt P11712). Briefly: Inhibition of CYP2C9. In kind it is ADME.
Cytochrome P450 2C9, sequence (P11712 whole entry): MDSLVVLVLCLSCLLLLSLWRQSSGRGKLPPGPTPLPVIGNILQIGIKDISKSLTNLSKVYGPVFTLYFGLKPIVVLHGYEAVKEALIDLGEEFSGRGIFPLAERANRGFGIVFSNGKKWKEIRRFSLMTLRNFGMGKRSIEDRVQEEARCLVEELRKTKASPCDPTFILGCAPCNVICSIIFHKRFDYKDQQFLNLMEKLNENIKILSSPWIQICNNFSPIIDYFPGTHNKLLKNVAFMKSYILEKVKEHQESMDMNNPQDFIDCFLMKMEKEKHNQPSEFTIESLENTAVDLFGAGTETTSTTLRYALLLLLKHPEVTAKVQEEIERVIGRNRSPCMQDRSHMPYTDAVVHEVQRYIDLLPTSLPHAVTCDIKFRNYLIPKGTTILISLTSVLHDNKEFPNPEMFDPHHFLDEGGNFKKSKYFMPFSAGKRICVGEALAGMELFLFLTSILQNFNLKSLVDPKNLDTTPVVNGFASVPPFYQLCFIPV
Data set [10] can be described thus: Clearance in Sprague-Dawley rat at 5 mg/kg, iv. Format: ADME, organism-based. The arrangement: dose 5 mg/kg, route intravenous. As to conditions: in vivo.
In data set [11] the target is Cytochrome P450 3A4 (Homo sapiens, UniProt P08684). Briefly: Inhibition of CYP3A4. Format: ADME.
Cytochrome P450 3A4, sequence (P08684 whole entry): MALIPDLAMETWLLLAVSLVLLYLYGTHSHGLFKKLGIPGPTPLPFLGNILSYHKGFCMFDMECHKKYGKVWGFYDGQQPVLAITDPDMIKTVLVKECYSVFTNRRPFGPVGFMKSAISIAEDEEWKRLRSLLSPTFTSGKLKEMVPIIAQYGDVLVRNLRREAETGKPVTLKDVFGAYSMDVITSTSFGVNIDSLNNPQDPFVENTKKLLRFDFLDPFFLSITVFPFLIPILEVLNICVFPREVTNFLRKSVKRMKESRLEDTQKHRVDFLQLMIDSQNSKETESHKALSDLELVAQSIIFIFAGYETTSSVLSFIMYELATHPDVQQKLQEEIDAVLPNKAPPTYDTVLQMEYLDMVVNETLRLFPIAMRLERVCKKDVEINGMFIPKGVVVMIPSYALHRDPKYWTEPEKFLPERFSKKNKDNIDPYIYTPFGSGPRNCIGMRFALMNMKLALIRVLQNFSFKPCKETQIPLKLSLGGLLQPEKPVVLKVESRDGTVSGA
Data set [12] in a line: Drug uptake in rat cornea administered topically as ophthalmic solution after 30 mins. Format: ADME, tissue-based. As to conditions: in vivo, topical_or_ocular, 0.5 h.
Data set [13] in a line: Drug uptake in dog bulbar conjunctiva administered topically as ophthalmic solution after 30 mins. In kind it is ADME, tissue-based, Canis lupus familiaris. As to conditions: in vivo, topical_or_ocular, 0.5 h.
The nature of data set [14]: Drug uptake in dog palpebral conjunctiva administered topically as ophthalmic solution after 30 mins. Format: ADME, tissue-based, Canis lupus familiaris. The note with it: in vivo, topical_or_ocular, 0.5 h.
Data set [15] can be described thus: Drug uptake in dog cornea administered topically as ophthalmic solution after 30 mins. Format: ADME, tissue-based, Canis lupus familiaris. The note with it: in vivo, topical_or_ocular, 0.5 h.
A short description of data set [16]: Drug uptake in rat palpebral conjunctiva administered topically as ophthalmic solution after 30 mins. In kind it is ADME, tissue-based. The note with it: in vivo, topical_or_ocular, 0.5 h.
Data set [17] is described as follows: Drug uptake in rat bulbar conjunctiva administered topically as ophthalmic solution after 30 mins. The note with it: in vivo, topical_or_ocular, 0.5 h. In kind it is ADME.
A short description of data set [18]: Solubility of the compound in phosphate-buffered saline. In kind it is physicochemical.
For data set [19], the target named is Intercellular adhesion molecule 1 (Homo sapiens) (UniProt P05362). Briefly: Inhibition of ICAM-1-mediated IL-10 release.
Intercellular adhesion molecule 1 (Homo sapiens), sequence (P05362 whole entry): as the sequence (P05362 whole entry) above
The target is the same in data set [20]. The experiment in a line: Inhibition of ICAM-1-mediated IFNgamma release.
Data set [21] shares this target. Briefly: Inhibition of ICAM-1-mediated MIP-1alpha release.
Data set [22] shares this target. The experiment in a line: Inhibition of ICAM-1-mediated IL-1beta release.
The target is the same in data set [23]. Briefly: Inhibition of ICAM-1-mediated IL-6 release.
For data set [24] the target is unchanged. The experiment in a line: Inhibition of ICAM-1-mediated IL-1alpha release.

For `CCS(=O)(=O)c1cccc(C[C@H](NC(=O)c2c(Cl)cc3c(c2Cl)CCN(C(=O)c2ccc4ccoc4c2)C3)C(=O)O)c1`, the values for the pIC50 in data set [1] and in data set [2] were 8.70 and 6.74, respectively.
Taken in the same sequence, the figures for `CC(C)c1cccc(C[C@H](NC(=O)c2c(Cl)cc3c(c2Cl)CCN(C(=O)c2ccc(Cl)cc2)C3)C(=O)O)c1` were 8.00 and below 5.00.
For `C[C@@H](O)c1cccc(C[C@H](NC(=O)c2c(Cl)cc3c(c2Cl)CCN(C(=O)c2ccc4ccoc4c2)C3)C(=O)O)c1` the same measures were 8.00 and 5.40.
For `CS(=O)(=O)c1cc(Cl)cc(C[C@H](NC(=O)c2c(Cl)cc3c(c2Cl)CCN(C(=O)c2ccc4ccoc4c2)C3)C(=O)O)c1` the same measures were 8.00 and 6.70.
On to `CS(=O)(=O)c1cccc(C[C@H](NC(=O)c2c(Cl)cc3c(c2Cl)CCN(C(=O)c2ccc4ccoc4c2)C3)C(=O)O)c1` [listing 1 of 2 here], for which the remaining at 0.5 h in [3] is above 95%; in data set [4] it was 71%. Moreover, the negative-log IC50 (pIC50) (usually the IC50 on a negative log10 scale, so that one unit is a factor of ten) in [1] is 8.05; in data set [2], 7.13; in data set [9], 5.52; in data set [11] it was below 4.70. Further, the half-life – broadly, the time needed for the level to fall by half in the phase considered – in [5] was 46.8 min. Further, the values for the Activity entry in [6] and in data set [8] were “Non-toxic” and 3.4 mm, respectively. In data set [7], the AUC (as a rule, the area under the concentration-time curve, a measure of exposure) worked out at 0.705 µg·h/mL. In addition, the clearance (usually a measure of how efficiently the substance is removed, as volume per time) in data set [10] was found to be 8.35 L/h/kg.
Regarding `CS(=O)(=O)c1cccc(C[C@H](N[14C](=O)c2c(Cl)cc3c(c2Cl)CCN(C(=O)c2ccc4ccoc4c2)C3)C(=O)O)c1`, the Drug uptake result in [12], in data set [13], in data set [14], in data set [15], in data set [16] and in [17] was “Active” in each case.
As to `CN(C)S(=O)(=O)c1cccc(C[C@H](NC(=O)c2c(Cl)cc3c(c2Cl)CCN(C(=O)c2ccc4ccoc4c2)C3)C(=O)O)c1`, the pIC50 in data set [1] was 8.00; in [2] it was below 5.00.
For `CC(C)S(=O)(=O)c1cccc(C[C@H](NC(=O)c2c(Cl)cc3c(c2Cl)CCN(C(=O)c2ccc4ccoc4c2)C3)C(=O)O)c1` the same measures were 6.70 and below 5.00.
With `CS(=O)(=O)c1cccc(C[C@H](NC(=O)c2c(Cl)cc3c(c2Cl)CCN(C(=O)c2ccc4ccoc4c2)C3)C(=O)[O-])c1.[Na+]` [LIFITEGRAST SODIUM], the solubility – broadly, how much of the substance goes into solution per volume – in [18] is at least 200 mg/mL.
For the molecule `CS(=O)(=O)c1ccc(Cl)c(C[C@H](NC(=O)c2c(Cl)cc3c(c2Cl)CCN(C(=O)c2ccc4ccoc4c2)C3)C(=O)O)c1`, in [1], the pIC50 was 6.92.
For the molecule `CS(=O)(=O)c1cccc(C[C@H](NC(=O)c2c(Cl)cc3c(c2Cl)CCN(C(=O)c2ccc(Cl)cc2)C3)C(=O)O)c1`, the figures for the negative logarithm of the IC50 (pIC50) in [1] and in data set [2] were 8.52 and 6.70, respectively.
Turning to `NS(=O)(=O)c1cccc(C[C@H](NC(=O)c2c(Cl)cc3c(c2Cl)CCN(C(=O)c2ccc4ccoc4c2)C3)C(=O)O)c1`, the figures for the remaining at 0.5 h in data set [3] and in [4] were above 95% and 71%, respectively. Besides, the pIC50 in [1] is 8.40; in [2], 6.70. The half-life in data set [5] is 61.8 min. This molecule also had an AUC in [7] of 2.43 µg·h/mL. Further, in data set [10], the clearance amounted to 2.06 L/h/kg.
On to `C[S+]([O-])c1cncc(CC(NC(=O)c2c(Cl)cc3c(c2Cl)CCN(C(=O)c2ccc4ccoc4c2)C3)C(=O)O)c1` (racemic), for which the remaining at 0.5 h in data set [3] and in data set [4] was above 95% in each case. The negative-log IC50 (pIC50) is 7.24 in [1] and 7.30 in data set [2]. This molecule had a half-life in data set [5] of 16.2 min. For the same molecule, in [7], the AUC was determined as 0.753 µg·h/mL. For the same molecule, in data set [10], the clearance was 7.27 L/h/kg.
In the case of `CS(=O)(=O)c1cc(F)cc(C[C@H](NC(=O)c2c(Cl)cc3c(c2Cl)CCN(C(=O)c2ccc4ccoc4c2)C3)C(=O)O)c1`, the remaining at 0.5 h in [3] and in [4] was above 95% each time. Moreover, the pIC50 in data set [1] is 8.00; in [2], 6.59. Besides, the half-life in data set [5] is 39 min. The molecule further came in with an AUC in [7] of 1.19 µg·h/mL. Moreover, the clearance in data set [10] was 4.83 L/h/kg.
On to `CP(C)(=O)c1cccc(C[C@H](NC(=O)c2c(Cl)cc3c(c2Cl)CCN(C(=O)c2ccc4ccoc4c2)C3)C(=O)O)c1`, for which the remaining at 0.5 h in data set [3] and in [4] was above 95% each time. Also, the negative-log IC50 (pIC50) in data set [1] is 7.24; in [2] it was 6.31. This molecule showed a half-life in data set [5] of 22.2 min. This molecule also yielded an AUC in data set [7] of 2.26 µg·h/mL. In [10], this molecule showed a clearance of 2.22 L/h/kg.
On to `CC(=O)c1cccc(C[C@H](NC(=O)c2c(Cl)cc3c(c2Cl)CCN(C(=O)c2ccc4ccoc4c2)C3)C(=O)O)c1`, for which the pIC50 in data set [1] was 7.92; in [2] it was 5.25.
Regarding `CS(=O)(=O)c1ccc(C[C@H](NC(=O)c2c(Cl)cc3c(c2Cl)CCN(C(=O)c2ccc(Cl)cc2)C3)C(=O)O)o1`, the remaining at 0.5 h in [3] is above 95%; in [4], 92%. The pIC50 in data set [1] is 8.22; in data set [2] it was 6.62. The molecule also had a half-life in [5] of 16.2 min. Further, in [7], the exposure (AUC) is 1.13 µg·h/mL. Further, the clearance in [10] was found to be 4.46 L/h/kg.
For `CS(=O)(=O)c1cc(C[C@H](NC(=O)c2c(Cl)cc3c(c2Cl)CCN(C(=O)c2ccc4ccoc4c2)C3)C(=O)O)ccc1Cl`, the values for the pIC50 in [1] and in [2] were 6.92 and 5.70, respectively.
In the case of `CNS(=O)(=O)c1cccc(C[C@H](NC(=O)c2c(Cl)cc3c(c2Cl)CCN(C(=O)c2ccc4ccoc4c2)C3)C(=O)O)c1`, the pIC50 is 7.89 in data set [1] and 6.19 in [2].
With `CS(=O)(=O)c1ccccc1C[C@H](NC(=O)c1c(Cl)cc2c(c1Cl)CCN(C(=O)c1ccc(Cl)cc1)C2)C(=O)O`, the pIC50 in data set [1] is below 6.00.
Still for that read-out and setting: with `CS(=O)(=O)c1ccc(C[C@H](NC(=O)c2c(Cl)cc3c(c2Cl)CCN(C(=O)c2ccc(Cl)cc2)C3)C(=O)O)cc1` the figure was 6.60.
On to `CS(=O)(=O)c1cncc(C[C@H](NC(=O)c2c(Cl)cc3c(c2Cl)CCN(C(=O)c2ccc4ccoc4c2)C3)C(=O)O)c1`, for which the remaining at 0.5 h in [3] and in data set [4] was above 95% each time. Besides, the pIC50 in [1] is 7.41; in data set [2] it was 7.49. Further, in data set [5], the half-life is 37.2 min. In addition, the AUC in data set [7] amounted to 1.28 µg·h/mL. The molecule also had a clearance in data set [10] of 4.41 L/h/kg.
Consider `C[C@H](O)c1cccc(C[C@H](NC(=O)c2c(Cl)cc3c(c2Cl)CCN(C(=O)c2ccc4ccoc4c2)C3)C(=O)O)c1`, for which the negative logarithm of the IC50 (pIC50) in [1] was 7.85; in data set [2] it was 6.03.
`CS(=O)(=O)c1cccc(C[C@H](NC(=O)c2c(Cl)cc3c(c2Cl)CCN(C(=O)c2ccc4ccoc4c2)C3)C(=O)O)c1Cl`: in data set [1], the negative logarithm of the IC50 (pIC50) is 6.10.
In the case of `CS(=O)(=O)c1cccc(C[C@H](NC(=O)c2c(Cl)cc3c(c2Cl)CCN(C(=O)c2ccc4ccoc4c2)C3)C(=O)O)c1` [listing 2 of 2 here], the inhibition entry in data set [19], in data set [20], in [21], in data set [22], in [23] and in data set [24] was “Active” each time.
Turning to `CS(=O)(=O)c1ccc(C[C@H](NC(=O)c2c(Cl)cc3c(c2Cl)CCN(C(=O)c2ccc4ccoc4c2)C3)C(=O)O)o1`, the remaining at 0.5 h is above 95% in data set [3] and 65% in data set [4]. Besides, the half-life in data set [5] was 25.8 min. The same molecule came in with an AUC in data set [7] of 1.51 µg·h/mL. The molecule also gave a clearance in data set [10] of 3.6 L/h/kg.
